In PMC8079033, “Design, synthesis, anticancer evaluation, and molecular modelling studies of novel tolmetin derivatives as potential VEGFR-2 inhibitors and apoptosis inducers” (Journal of Enzyme Inhibition and Medicinal Chemistry, 2021):

How the values were obtained:
[1] = system: 786-0; assay: NCI 60-cell line one-dose antiproliferative screen (SRB); format: cell-based; details: Homo sapiens, read-out: growth inhibition % (GI%)
Description: (§1) Anticancer activity screening of the newly synthesised compounds was measured in vitro utilising 60 different human tumour cell lines provided by US National Cancer Institute according to previously reported standard procedure[41–43] as follows: Cells are inoculated into 96-well microtiter plates in 100 ml. After cell inoculation, the microtiter plates are incubated at 37 °C, 5% CO2, 95% air, and 100% relative humidity for 24 h prior to addition of experimental compounds. After 24 h, two plates of each cell line are fixed in situ with TCA, to represent a measurement of the cell population for each cell line at the time of compound addition (Tz). Experimental compounds are solubilised in dimethyl sulfoxide at 400-fold the desired final maximum test concentration and stored frozen prior to use. At the time of compound addition, an aliquot of frozen concentrate is thawed and diluted to twice the desired final maximum test concentration with a complete medium containing […] gentamicin. Aliquots of […] of the compounds dilutions are added to the appropriate microtiter wells already containing 100 ml of medium, resulting in the required final compound concentration. Following compound addition, the plates are incubated for an additional 48 h at 37 °C, 5% CO2, 95% air, and 100% relative humidity. For adherent cells, the assay is terminated by the addition of cold trichloroacetic acid (TCA). Cells are fixed in situ by the gentle addition of 50 ml of cold 50% (w/v) TCA (final concentration, 10% TCA) and incubated for […] at 4 °C. The supernatant is discarded, and the plates are washed five times with tap water and air-dried. Sulforhodamine B (SRB) solution (100 ml) at 0.4% (w/v) in 1% acetic acid is added to each well, and plates are incubated for 10 min at room temperature. After staining, the unbound dye is removed by washing five times with 1% acetic acid and the plates are air-dried. The bound stain is subsequently solubilised with a 10 mM trizma base, and the absorbance is read on an automated plate reader at a wavelength of 515 nm. For suspension cells, the methodology is the same except that the assay is terminated by fixing settled cells at the bottom of the wells by gently adding 50 ml of 80% TCA (final concentration, 16% TCA). Using the absorbance measurements [time zero, (Tz), control growth, (C), and test growth in the presence of compound (Ti)], the percentage growth is calculated for each compound. The One-dose data are reported as a mean graph of the percent growth of treated cells. The reported number is growth relative to the no-compound control, and relative to the time zero number of cells. This allows the detection of both growth inhibition and lethality.
(§2) Fifteen newly synthesised compounds were tested for their in vitro antiproliferative activity by the National Cancer Institute (NCI), Maryland, USA[50], under the Developmental Therapeutic Program (DTP)[41]^,[43]^,[51]^,[52]. The tested compounds were evaluated at a concentration of 10 µM on a panel of 60 tumour cell lines representing leukaemia and non-small cell lung, colon, CNS, melanoma, ovarian, renal, prostate, and breast cancers. The antiproliferative activity was presented by the NCI as percent growth of the treated cells and is presented in Table 1 as growth inhibition percentage (GI%) achieved by the tested compounds.

[2] = system: A498; assay: as above; format: cell-based; details: Homo sapiens, read-out: growth inhibition % (GI%)
Description: as §1, §2

[3] = system: A549/ATCC; assay: as above; format: cell-based; details: Homo sapiens, read-out: growth inhibition % (GI%)
Description: as §1, §2

[4] = system: ACHN; assay: as above; format: cell-based; details: Homo sapiens, read-out: growth inhibition % (GI%)
Description: as §1, §2

[5] = system: CAKI-1; assay: as above; format: cell-based; details: Homo sapiens, read-out: growth inhibition % (GI%)
Description: as §1, §2

[6] = system: EKVX; assay: as above; format: cell-based; details: Homo sapiens, read-out: growth inhibition % (GI%)
Description: as §1, §2

[7] = system: HCT-116; assay: as above; format: cell-based; details: Homo sapiens, read-out: growth inhibition % (GI%)
Description: as §1, §2

[8] = system: HCT-15; assay: as above; format: cell-based; details: Homo sapiens, read-out: growth inhibition % (GI%)
Description: as §1, §2

[9] = system: HL-60 (TB); assay: as above; format: cell-based; details: Homo sapiens, read-out: growth inhibition % (GI%)
Description: as §1, §2

[10] = system: HOP-62; assay: as above; format: cell-based; details: Homo sapiens, read-out: growth inhibition % (GI%)
Description: as §1, §2

[11] = system: HOP-92; assay: as above; format: cell-based; details: Homo sapiens, read-out: growth inhibition % (GI%)
Description: as §1, §2

[12] = system: HS 578 T; assay: as above; format: cell-based; details: Homo sapiens, read-out: growth inhibition % (GI%)
Description: as §1, §2

[13] = system: IGROV1; assay: as above; format: cell-based; details: Homo sapiens, IGROV-1, read-out: growth inhibition % (GI%)
Description: as §1, §2

[14] = system: K-562; assay: as above; format: cell-based; details: Homo sapiens, K562, read-out: growth inhibition % (GI%)
Description: as §1, §2

[15] = system: KM12; assay: as above; format: cell-based; details: Homo sapiens, read-out: growth inhibition % (GI%)
Description: as §1, §2

[16] = system: LOX IMVI; assay: as above; format: cell-based; details: Homo sapiens, read-out: growth inhibition % (GI%)
Description: as §1, §2

[17] = system: MALME-3M; assay: as above; format: cell-based; details: Homo sapiens, read-out: growth inhibition % (GI%)
Description: as §1, §2

[18] = system: MCF7; assay: as above; format: cell-based; details: Homo sapiens, read-out: growth inhibition % (GI%)
Description: as §1, §2

[19] = system: MDA-MB-231/ATCC; assay: as above; format: cell-based; details: Homo sapiens, read-out: growth inhibition % (GI%)
Description: as §1, §2

[20] = system: MOLT-4; assay: as above; format: cell-based; details: Homo sapiens, read-out: growth inhibition % (GI%)
Description: as §1, §2

[21] = system: NCI-H226; assay: as above; format: cell-based; details: Homo sapiens, read-out: growth inhibition % (GI%)
Description: as §1, §2

[22] = system: NCI-H23; assay: as above; format: cell-based; details: Homo sapiens, read-out: growth inhibition % (GI%)
Description: as §1, §2

[23] = system: NCI-H460; assay: as above; format: cell-based; details: Homo sapiens, read-out: growth inhibition % (GI%)
Description: as §1, §2

[24] = system: NCI-H522; assay: as above; format: cell-based; details: Homo sapiens, read-out: growth inhibition % (GI%)
Description: as §1, §2

[25] = system: NCI/ADR-RES; assay: as above; format: cell-based; details: Homo sapiens, read-out: growth inhibition % (GI%)
Description: as §1, §2

[26] = system: OVCAR-4; assay: as above; format: cell-based; details: Homo sapiens, read-out: growth inhibition % (GI%)
Description: as §1, §2

[27] = system: OVCAR-5; assay: as above; format: cell-based; details: Homo sapiens, read-out: growth inhibition % (GI%)
Description: as §1, §2

[28] = system: OVCAR-8; assay: as above; format: cell-based; details: Homo sapiens, read-out: growth inhibition % (GI%)
Description: as §1, §2

[29] = system: PC-3; assay: as above; format: cell-based; details: Homo sapiens, read-out: growth inhibition % (GI%)
Description: as §1, §2

[30] = system: RPMI-8226; assay: as above; format: cell-based; details: Homo sapiens, read-out: growth inhibition % (GI%)
Description: as §1, §2

[31] = system: SF-268; assay: as above; format: cell-based; details: Homo sapiens, read-out: growth inhibition % (GI%)
Description: as §1, §2

[32] = system: SF-295; assay: as above; format: cell-based; details: Homo sapiens, read-out: growth inhibition % (GI%)
Description: as §1, §2

[33] = system: SF-539; assay: as above; format: cell-based; details: Homo sapiens, read-out: growth inhibition % (GI%)
Description: as §1, §2

[34] = system: SK-MEL-5; assay: as above; format: cell-based; details: Homo sapiens, read-out: growth inhibition % (GI%)
Description: as §1, §2

[35] = system: SK-OV-3; assay: as above; format: cell-based; details: Homo sapiens, read-out: growth inhibition % (GI%)
Description: as §1, §2

[36] = system: SN 12 C; assay: as above; format: cell-based; details: Homo sapiens, SN12C, read-out: growth inhibition % (GI%)
Description: as §1, §2

[37] = system: SNB-19; assay: as above; format: cell-based; details: Homo sapiens, read-out: growth inhibition % (GI%)
Description: as §1, §2

[38] = system: SNB-75; assay: as above; format: cell-based; details: Homo sapiens, read-out: growth inhibition % (GI%)
Description: as §1, §2

[39] = system: SR; assay: as above; format: cell-based; details: Homo sapiens, read-out: growth inhibition % (GI%)
Description: as §1, §2

[40] = system: SW-620; assay: as above; format: cell-based; details: Homo sapiens, read-out: growth inhibition % (GI%)
Description: as §1, §2

[41] = system: T-47D; assay: as above; format: cell-based; details: Homo sapiens, T47D, read-out: growth inhibition % (GI%)
Description: as §1, §2

[42] = system: U251; assay: as above; format: cell-based; details: Homo sapiens, U-251, read-out: growth inhibition % (GI%)
Description: as §1, §2

[43] = system: UACC-257; assay: as above; format: cell-based; details: Homo sapiens, read-out: growth inhibition % (GI%)
Description: as §1, §2

[44] = system: UACC-62; assay: as above; format: cell-based; details: Homo sapiens, read-out: growth inhibition % (GI%)
Description: as §1, §2

[45] = system: UO-31; assay: as above; format: cell-based; details: Homo sapiens, read-out: growth inhibition % (GI%)
Description: as §1, §2

For `Cc1ccc(C(=O)c2ccc(CC(=O)NN=Cc3cc4ccccc4[nH]3)n2C)cc1` [Compound 5e, N′-((1H-Indol-2-yl)methylene)-2–(1-methyl-5–(4-methylbenzoyl)-1H-pyrrol-2-yl) acetohydrazide], the inhibition at 10 µM [1] was < 10%, the inhibition at 10 µM [2] was 10.9% and the inhibition at 10 µM [3] was < 10%. The inhibition at 10 µM [4] was < 10%, the inhibition at 10 µM [5] was 15.8% and the inhibition at 10 µM [6] was 25.7%. The inhibition at 10 µM [7] was < 10%, the inhibition at 10 µM [8] was 12.6% and the inhibition at 10 µM [9] was < 10%. For the same compound, the inhibition at 10 µM [10] was 24%, the inhibition at 10 µM [11] was 10.3% and the inhibition at 10 µM [12] was < 10%. The inhibition at 10 µM [13] was 45.5%, the inhibition at 10 µM [14] was < 10% and the inhibition at 10 µM [15] was < 10%. For the same compound, the inhibition at 10 µM [16] was 10.7%, the inhibition at 10 µM [17] was < 10% and the inhibition at 10 µM [18] was 22.1%. For the same compound, the inhibition at 10 µM [19] was 20.5%, the inhibition at 10 µM [20] was < 10% and the inhibition at 10 µM [21] was 15.3%. The inhibition at 10 µM [22] was 15.4%, the inhibition at 10 µM [23] was < 10% and the inhibition at 10 µM [24] was 18.9%. For the same compound, the inhibition at 10 µM [25] was < 10%, the inhibition at 10 µM [26] was 19.3% and the inhibition at 10 µM [27] was < 10%. For the same compound, the inhibition at 10 µM [28] was < 10%, the inhibition at 10 µM [29] was 10.9% and the inhibition at 10 µM [30] was < 10%. For the same compound, the inhibition at 10 µM [31] was < 10%, the inhibition at 10 µM [32] was < 10% and the inhibition at 10 µM [33] was < 10%. For the same compound, the inhibition at 10 µM [34] was < 10%, the inhibition at 10 µM [35] was 12.1% and the inhibition at 10 µM [36] was 10.5%. For the same compound, the inhibition at 10 µM [37] was 17.3%, the inhibition at 10 µM [38] was 15.3% and the inhibition at 10 µM [39] was < 10%. For the same compound, the inhibition at 10 µM [40] was < 10%, the inhibition at 10 µM [41] was 29.4% and the inhibition at 10 µM [42] was < 10%. For the same compound, the inhibition at 10 µM [43] was < 10%, the inhibition at 10 µM [44] was 15.8% and the inhibition at 10 µM [45] was 40.4%. For the same compound, the melting point was 198 to 200 °C.
